Reference: PubChem BioAssay AID1963443 (Molecular Pharmacology Branch, DTP, NCI, 2024)
pIC50: −log10 of the molar value.

Tested on: MDA-MB-231 complex spheroids, growth inhibition
Assay: Anticancer human tumor MDA-MB-231 cell line growth inhibition [Asc];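 note: spheroids exposed to compounds for 7 days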
Conditions: for pIC50: curve of first compound; for viability, T/C: stronger effect = lower value
Outline: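 Tumor cells were grown as complex spheroids with human endothelial cells (HUVEC) and human mesenchymal stem cells as stroma. Agents were tested alone and in combination, in half-log steps down from the clinical Cmax, or from 10 microM where Cmax was unknown.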

[1] = second compound 0.1 µM, first compound 0.00316 µM
[2] = second compound 0.1 µM, first compound 0.01 µM
[3] = second compound 0.1 µM, first compound 0.0316 µM
[4] = second compound 0.1 µM, first compound 0.1 µM
[5] = second compound 0.1 µM, first compound 0.316 µM
[6] = second compound 0.1 µM, first compound 1 µM
[7] = second compound 0.316 µM, first compound 0.00316 µM
[8] = second compound 0.316 µM, first compound 0.01 µM
[9] = second compound 0.316 µM, first compound 0.0316 µM
[10] = second compound 0.316 µM, first compound 0.1 µM
[11] = second compound 0.316 µM, first compound 0.316 µM
[12] = second compound 0.316 µM, first compound 1 µM
[13] = second compound 1 µM, first compound 0.00316 µM
[14] = second compound 1 µM, first compound 0.01 µM
[15] = second compound 1 µM, first compound 0.0316 µM
[16] = second compound 1 µM, first compound 0.1 µM
[17] = second compound 1 µM, first compound 0.316 µM
[18] = second compound 1 µM, first compound 1 µM
[19] = second compound 3.16 µM, first compound 0.00316 µM
[20] = second compound 3.16 µM, first compound 0.01 µM
[21] = second compound 3.16 µM, first compound 0.0316 µM
[22] = second compound 3.16 µM, first compound 0.1 µM
[23] = second compound 3.16 µM, first compound 0.316 µM
[24] = second compound 3.16 µM, first compound 1 µM
[25] = second compound 10 µM, first compound 0.00316 µM
[26] = second compound 10 µM, first compound 0.01 µM
[27] = second compound 10 µM, first compound 0.0316 µM
[28] = second compound 10 µM, first compound 0.1 µM
[29] = second compound 10 µM, first compound 0.316 µM
[30] = second compound 10 µM, first compound 1 µM
[31] = second compound 0.1 µM, first compound 3.16 µM
[32] = second compound 0.1 µM, first compound 10 µM
[33] = second compound 0.316 µM, first compound 3.16 µM
[34] = second compound 0.316 µM, first compound 10 µM
[35] = second compound 1 µM, first compound 3.16 µM
[36] = second compound 1 µM, first compound 10 µM

Compound	pIC50 (second compound 0.1 µM)	pIC50 (second compound 0.316 µM)	pIC50 (second compound 1 µM)	pIC50 (second compound 3.16 µM)	pIC50 (second compound 10 µM)	viability, T/C [3] [%]	viability, T/C [4] [%]	viability, T/C [5] [%]	viability, T/C [6] [%]	viability, T/C [9] [%]	viability, T/C [10] [%]	viability, T/C [11] [%]	viability, T/C [12] [%]	viability, T/C [15] [%]	viability, T/C [16] [%]	viability, T/C [17] [%]	viability, T/C [18] [%]	viability, T/C [21] [%]	viability, T/C [22] [%]	viability, T/C [23] [%]	further results
CNC(C)C(=O)NC1CN(S(=O)(=O)c2cccc(S(=O)(=O)N3CCC4CCC(C(=O)NC(c5ccccc5)c5ccccc5)N4C(=O)C(NC(=O)C(C)NC)C3)c2)CCC2CCC(C(=O)NC(c3ccccc3)c3ccccc3)N2C1=O (stereo not given) + Cc1c(S(C)(=O)=O)c(-c2cc(F)cc(N3CCN(c4ccc(NS(=O)(=O)c5ccc(NC(CCN6CCC(C(=O)OCCCP(=O)(O)O)CC6)CSc6ccccc6)c(S(=O)(=O)C(F)(F)F)c5)cc4)CC3)c2)c(-c2ccc(Cl)cc2)n1C(C)C	> 8.50	> 8.50	> 8.50	> 8.50	> 8.50	0.9	0.67	0.5	0.72	0.75	0.41	0.53	0.56	0.54	0.29	0.35	0.9	0.35	0.27	0.26	viability, T/C [1]: 2.88%; viability, T/C [2]: 0.95%; viability, T/C [7]: 2.6%; viability, T/C [8]: 0.97%; viability, T/C [13]: 2.07%; viability, T/C [14]: 0.62%; viability, T/C [19]: 1.77%; viability, T/C [20]: 0.46%; viability, T/C [24]: 0.39%; viability, T/C [25]: 1.22%; viability, T/C [26]: 0.49%; viability, T/C [27]: 0.42%; viability, T/C [28]: 0.48%; viability, T/C [29]: 0.43%; viability, T/C [30]: 0.61%
C#Cc1c(F)ccc2cc(O)cc(-c3ncc4c(N5CC6CCC(C5)N6)nc(OCC56CCCN5CC(F)C6)nc4c3F)c12 (stereo not given) + Cc1c(S(C)(=O)=O)c(-c2cc(F)cc(N3CCN(c4ccc(NS(=O)(=O)c5ccc(NC(CCN6CCC(C(=O)OCCCP(=O)(O)O)CC6)CSc6ccccc6)c(S(=O)(=O)C(F)(F)F)c5)cc4)CC3)c2)c(-c2ccc(Cl)cc2)n1C(C)C	< 5.00	5.12	5.33	5.49	5.48	96.6	103	95.6	73.6	105	104	98.3	76.6	102	96.8	101	74.2	93.3	94.6	97.7	viability, T/C [31]: 68.7%; viability, T/C [32]: 50.7%; viability, T/C [33]: 63.4%; viability, T/C [34]: 45.5%; viability, T/C [35]: 59.6%; viability, T/C [36]: 36.1%; viability, T/C [24]: 72.2%; viability, T/C (second compound 3.16 µM, first compound 3.16 µM): 52.9%; viability, T/C (second compound 3.16 µM, first compound 10 µM): 23.3%; viability, T/C [27]: 97.2%; viability, T/C [28]: 97.2%; viability, T/C [29]: 99%; viability, T/C [30]: 89.5%; viability, T/C (second compound 10 µM, first compound 3.16 µM): 51.3%; viability, T/C (second compound 10 µM, first compound 10 µM): 12.7%
O=C(c1ccc(F)c(F)c1Nc1ccc(I)cc1F)N1CC(O)([C@@H]2CCCCN2)C1 + Cc1c(S(C)(=O)=O)c(-c2cc(F)cc(N3CCN(c4ccc(NS(=O)(=O)c5ccc(NC(CCN6CCC(C(=O)OCCCP(=O)(O)O)CC6)CSc6ccccc6)c(S(=O)(=O)C(F)(F)F)c5)cc4)CC3)c2)c(-c2ccc(Cl)cc2)n1C(C)C	7.12	6.99	7.15	6.93	6.94	60.6	51.9	24.9	1.38	64.7	54.8	14.6	0.96	66.7	60.3	10.8	1.16	60.4	57.2	5.78	viability, T/C [1]: 87.8%; viability, T/C [2]: 68.8%; viability, T/C [7]: 86.3%; viability, T/C [8]: 61.9%; viability, T/C [13]: 96.5%; viability, T/C [14]: 59.5%; viability, T/C [19]: 81.9%; viability, T/C [20]: 56.5%; viability, T/C [24]: 0.65%; viability, T/C [25]: 93.9%; viability, T/C [26]: 93.1%; viability, T/C [27]: 89%; viability, T/C [28]: 57.1%; viability, T/C [29]: 0.97%; viability, T/C [30]: 0.83%
O=C(c1cc(Cc2n[nH]c(=O)c3ccccc23)ccc1F)N1CCN(C(=O)C2CC2)CC1 + CNC(C)C(=O)NC1CN(S(=O)(=O)c2cccc(S(=O)(=O)N3CCC4CCC(C(=O)NC(c5ccccc5)c5ccccc5)N4C(=O)C(NC(=O)C(C)NC)C3)c2)CCC2CCC(C(=O)NC(c3ccccc3)c3ccccc3)N2C1=O	> 7.50	> 7.50	> 7.50	–	–	1.25	1.35	1.63	1.07	1.03	1.15	1.4	1.07	1.05	1.48	1.17	0.97	–	–	–	pIC50 (second compound 0.01 µM): > 7.50; pIC50 (second compound 0.0316 µM): > 7.50; viability, T/C (second compound 0.01 µM, first compound 0.0316 µM): 2.12%; viability, T/C (second compound 0.01 µM, first compound 0.1 µM): 2.15%; viability, T/C (second compound 0.01 µM, first compound 0.316 µM): 2.12%; viability, T/C (second compound 0.01 µM, first compound 1 µM): 2.46%; viability, T/C (second compound 0.01 µM, first compound 3.16 µM): 1.41%; viability, T/C (second compound 0.01 µM, first compound 10 µM): 1.59%; viability, T/C (second compound 0.0316 µM, first compound 0.0316 µM): 1.57%; viability, T/C (second compound 0.0316 µM, first compound 0.1 µM): 1.69%; viability, T/C (second compound 0.0316 µM, first compound 0.316 µM): 1.39%; viability, T/C (second compound 0.0316 µM, first compound 1 µM): 1.53%; viability, T/C (second compound 0.0316 µM, first compound 3.16 µM): 1.35%; viability, T/C (second compound 0.0316 µM, first compound 10 µM): 1.61%; viability, T/C [31]: 1.04%; viability, T/C [32]: 1.01%; viability, T/C [33]: 0.98%; viability, T/C [34]: 0.83%; viability, T/C [35]: 0.82%; viability, T/C [36]: 0.96%
